Legend:
[1] = system: hamster INGAP 5′-regulatory region; assay: β-galactosidase reporter assay with hamster INGAP 5′-regulatory region fragments in transfected 293T cells; format: cell-based; details: human 293T cells
Source text: Promoter analysis of INGAP identified a number of potential promoter-proximal regulatory sites including the consensus transcription factor binding sites; cAMP response element (CRE), AP-1 and STAT. Promoter-fragment reporter-gene constructs were transiently transfected into 293T cells and co-transfection of secretory alkaline phosphatase was used to normalize for transfection efficiency.
Reporter constructs containing INGAP 5′-regulatory region fragments 2—3sP (SEQ ID NO: 37), 2—3dP (SEQ ID NO: 38), 2—3pP (SEQ ID NO: 36), 14—3P (SEQ ID NO: 34), 16—3P (SEQ ID NO: 31), or 19—3P (SEQ ID NO: 23) were transfected into human cells. The pβGal-Basic plasmid without the hamster INGAP DNA was also transfected into human cells as a control to measure the level of endogenous reporter activity. Two days following transfection, the cells were treated with PMA for 24 hours or were untreated. To determine the level of promoter activity, the amount of β-galactosidase gene product was determined using a luminescent assay for β-galactosidase.
Reporter construct containing INGAP 5′-regulatory region DNA nucleotides 2030 to 3120 was transfected into human cells. The pβGal-Basic plasmid without the hamster INGAP DNA was also transfected into human cells as a control to measure the level of endogenous reporter activity. Two days following transfection, the cells were treated with LIF for 24 hours or were untreated. To determine the level of promoter activity, the amount of β-galactosidase gene product was determined using a luminescent assay for β-galactosidase.
To map the approximate location of PMA-initiated or LIF-initiated transcription factor binding different fragments of the hamster INGAP 5′-regulatory region were cloned into pβGal-Basic. The fragments cloned into the reporter construct were 2—3sP (SEQ ID NO: 37), 2—3dP (SEQ ID NO: 38), 2—3pP (SEQ ID NO: 36), 14—3P (SEQ ID NO: 34), 16—3P (SEQ ID NO: 31), or 19—3P (SEQ ID NO: 23). […] To determine the level of promoter activity, the amount of β-galactosidase gene product was determined using a luminescent assay for β-galactosidase. […]

INGAP gene = assay: Northern RNA analysis of INGAP gene upregulation in AR42J cells; format: cell-based; details: rat AR42J cells; IL-6 1000 U/ml, 24 hours; FIG. 12
Description: To determine if INGAP RNA levels increase after stimulation with a cytokine that signals through STAT, rat amphocrine pancreatic cells, AR42J were treated with IL-6 (1000 U/ml) for 24 hours. Total RNA was extracted from the treated and untreated cells using techniques well known in the art, e.g., using TRIZOL® reagent.
Equal amounts of total RNA (10 μg) were loaded in 2.5% formaldehyde gel and electrophoresed for 4 hours at 70V with a constant circulation of the buffer using a circulating pump. The gel was photographed and washed with water twice at room temperature and soaked in 20×SSC. The gel was transferred to a nylon membrane (Amersham) in 20×SSC overnight following a standard procedure. The membrane was washed with 20×SSC to remove any agar that might have attached to the membrane and baked for 4 hours at […].
One hundred nanograms of hamster INGAP cDNA was labeled using Random Prime Labeling kit (Roche-BMB) and alpha-P^32 dCTP (ICN). Approximately 20 million counts were used for hybridization in 20 ml hybridization buffer following the standard procedure at 42° for overnight. The blot was washed as follows: 2-times at room temperature with 2×SSC for 10 minutes each; 2-times at 42° with 2×SSC for 10 minutes each; 2-times at 55° with 1×SSC for 10 minutes each. The membrane was exposed to the film (XOMAT-Kodak) and kept at −80° C. overnight before developing.

CCCCCCCCCCCCCC(=O)O[C@@H]1[C@@H](C)[C@@]2(O)[C@@H](C=C(CO)C[C@]3(O)C(=O)C(C)=C[C@@H]23)[C@@H]2C(C)(C)[C@]12OC(C)=O [PMA, phorbol myristate acetate, reference compound]
promoter activity (β-galactosidase reporter, luminescent assay) ([1]; constructs 2_3sP, 2_3dP, 2_3pP, 14_3P, 16_3P, 19_3P, PMA 6, 17, 50, 100 or 300 ng/ml, 24 hours, FIG. 10): activated the cell reporter constructs

IL-6: cytokine that signals through STAT
INGAP gene expression (RNA, Northern analysis) (INGAP gene): increase in INGAP gene expression

LIF: human leukemia inhibitory factor (hLIF)
promoter activity (β-galactosidase reporter, luminescent assay) ([1]; construct with INGAP 5′-regulatory region nucleotides 2030 to 3120, treated 24 hours, two days after transfection, FIG. 9B): increase the activity of the 5′-regulatory region of mammalian INGAP | promoter activity (β-galactosidase reporter, luminescent assay) ([1]; constructs 2_3sP, 2_3dP, 2_3pP, 14_3P, 16_3P, 19_3P, LIF 1, 10 or 30 ng/ml, 24 hours, FIG. 11): activated the cell reporter constructs

— patent US7355024B2, “Regulatory sequences for modulation of INGAP expression and reporter constructs” (GMP Endotherapeutics, Inc., priority 2002, dated 2008)
